In patent US7064120B2, “Tricyclic pyridyl carboxamides and derivatives thereof tocolytic oxytocin receptor antagonists” (Wyeth, priority 2001, dated 2006):

Biological target: T1, human oxytocin receptor (Homo sapiens, UniProt P30559)
T1 construct: host or cells: CHO cells, stably transfected (pcDNA3.1 vector)
T1 sequence (P30559 1-389): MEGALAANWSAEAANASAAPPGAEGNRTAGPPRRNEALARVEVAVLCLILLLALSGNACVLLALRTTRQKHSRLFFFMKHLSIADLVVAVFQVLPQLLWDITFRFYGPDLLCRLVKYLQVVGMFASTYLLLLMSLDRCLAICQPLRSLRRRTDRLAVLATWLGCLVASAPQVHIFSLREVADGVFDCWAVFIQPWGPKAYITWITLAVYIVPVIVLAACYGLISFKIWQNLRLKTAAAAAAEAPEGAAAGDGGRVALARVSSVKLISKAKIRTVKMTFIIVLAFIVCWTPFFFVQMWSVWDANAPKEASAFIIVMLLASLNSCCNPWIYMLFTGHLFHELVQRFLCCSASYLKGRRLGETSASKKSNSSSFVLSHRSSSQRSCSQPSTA
Test: Oxytocin binding in CHO cell membranes expressing human oxytocin receptors ([3H]oxytocin radioligand binding)
Conditions: 100 nM, read-out: OT % inhibition @ 100 nM
Method: Oxytocin Binding in Chinese Hamster Ovary Cell Membranes Expressing Human Oxytocin Receptors
Cell Culture medium (e.g. 30 mL for 1:30 split) is immediately added and mixed well to inactivate trypsin. 1 mL of detached cells is added to new culture flasks containing fresh Cell Culture medium (e.g. into 25 mL per T-150 flask), and mixed gently. The cells are incubated at 37° C. in 5% CO2. The medium is changed at 3 to 4 days interval (or as appropriate). […] All steps are done under sterile conditions.
The cells are washed twice gently with Hank's Balanced Salt solution (e.g., use 10 mL per T-150 flask). […] The contents are transferred to centrifuge tubes (50 mL size) kept in ice bath. All subsequent steps are done at 4° C. The tubes are centrifuged at 300×g for 15 min (1380 rpm on SORVAL, Model RT6000D, using rotor for 50 mL tubes). The supernatant is discarded and the cells suspended in homogenizing buffer (10 mM Tris-HCl containing 0.25 M sucrose and 1 mM EDTA, pH 7.4) ensuring that the volume of the buffer is about ten times the volume of the cell pellet. The cells are pooled into a centrifuge tube (50 mL) and homogenized with a Polytron at setting 6 for 10 sec. The homogenate is transferred into a Potter-Elvjehm homogenizer and homogenized with 3 strokes. The homogenate is centrifuged at 1500×g for 10 min at 4° C. (3100 rpm using SORVAL, model RT6000D, using a rotor for 50 mL tubes). The pellet is discarded. The supernatant is centrifuged at 100,000×g for 60 min. at 4° C. (Beckman L8-80M ultracentrifuge; spin at 37,500 rpm with rotor type 70 Ti for 50 mL tubes; 38,000 rpm with rotor type 8OTi for 15 mL tubes; or 35,800 rpm with rotor type 45Ti). The supernantant is discarded and the pellet suspended in 3 to 4 mL of Tris buffer (50 mM TRIS-HCl, pH 7.4). The protein content is estimated by the Bradford or Lowry method. The volume of the membrane suspension is adjusted with the membrane buffer (50 mM Tris-HCl containing 0.1% BSA and 0.1 mM PMSF) to give 3.0 mg/mL (or as appropriate) of protein. The membranes are aliquoted and stored at −70° C.
In wells of a 96-well format microtiter plate, is added 90, 110 or 130 μL (to make up a final volume of 200 μL) of assay buffer containing 50 mM of Tris-HCl (pH 7.4), […], 1 mg % aprotinin, 1 mg % leupeptin, 2 mg % 1,10-phenanthroline, 10 mg % trypsin inhibitor, and 0.1 mM PMSF. The inhibitors are added on the day of the experiment. The components are mixed at room temperature, and then kept in ice bath following adjustment of the pH to 7.4. […] For oxytocin and other peptide ligands, 20 μL of 50% DMSO is added and the assay buffer volume is adjusted accordingly. To each well is added 50 μL of frozen membrane suspension thawed immediately prior to use and diluted in assay buffer to the required concentration (equivalent to 25 to 50 μg of protein/well as needed). 20 μL of 8 nM [^3H]oxytocin in the assay buffer, prepared just before use is added and incubated at room temperature for 60 min. shaking the plate on a mechanical shaker for the first 15 min. The incubation is stopped by rapid filtration of the plate contents followed by washing with ice-cold buffer (50 mM Tris-HCl, pH 7.4) using a cell harvester (Tomtek and Printed filtermat-B filter paper). The filter paper is thoroughly dried (7–12 min. in a microwave oven) and impregnated with MeltiLex B/H melt-on scintillation wax sheets and the radioactivity counted in a betaplate scintillation counter.
Binding data is either reported as percent inhibition at a certain concentration or if an IC50 was calculated, as a nanomolar concentration.

SMILES | inhibition at 0.1 µM
COc1ccccc1-c1ccc(C(=O)N2Cc3ccc(C(=O)NCc4ccccn4)n3Cc3ccccc32)cc1C [Example 24, 10-[(2′-Methoxy-2-methyl-[1,1′-biphenyl]-4-yl)carbonyl]-N-(2-pyridinylmethyl)-10,11-dihydro-5H-pyrrolo[2,1-c][1,4]benzodiazepine-3-carboxamide] | 50%
COc1cccc(-c2ccc(C(=O)N3Cc4ccc(C(=O)NCc5ccccn5)n4Cc4ccccc43)cc2C)c1 [Example 25, 10-[(3′-Methoxy-2-methyl-[1,1′-biphenyl]-4-yl)carbonyl]-N-(2-pyridinylmethyl)-10,11-dihydro-5H-pyrrolo[2,1-c][1,4]benzodiazepine-3-carboxamide] | 50%
COc1ccccc1-c1ccc(C(=O)N2Cc3ccc(C(=O)NCc4ccccn4)n3Cc3ccccc32)cc1 [Example 26, 10-[(2′-Methoxy-[1,1′-biphenyl]-4-yl)carbonyl]-N-(2-pyridinylmethyl)-10,11-dihydro-5H-pyrrolo[2,1-c][1,4]benzodiazepine-3-carboxamide] | 47%
Cc1ccccc1-c1ccc(C(=O)N2Cc3ccc(C(=O)NCc4ccccn4)n3Cc3ccccc32)cc1 [Example 27, 10-[(2′-Methyl-[1,1′-biphenyl]-4-yl)carbonyl]-N-(2-pyridinylmethyl)-10,11-dihydro-5H-pyrrolo[2,1-c][1,4]benzodiazepine-3-carboxamide] | 22%
COc1cc(C(=O)N2Cc3ccc(C(=O)NCc4ccccn4)n3Cc3ccccc32)ccc1-c1ccccc1C [Example 28, 10-[(2-Methoxy-2′-methyl-[1,1′-biphenyl]-4-yl)carbonyl]-N-(2-pyridinylmethyl)-10,11-dihydro-5H-pyrrolo[2,1-c][1,4]benzodiazepine-3-carboxamide] | 50%
COc1cc(-c2ccccc2C)c(Cl)cc1C(=O)N1Cc2ccc(C(=O)NCc3ccccn3)n2Cc2ccccc21 [Example 29, 10-[(6-Chloro-3-methoxy-2′-methyl-[1,1′-biphenyl]-4-yl)carbonyl]-N-(2-pyridinylmethyl)-10,11-dihydro-5H-pyrrolo[2,1-c][1,4]benzodiazepine-3-carboxamide] | 42%
COc1cccc(-c2cc(OC)c(C(=O)N3Cc4ccc(C(=O)NCc5ccccn5)n4Cc4ccccc43)cc2Cl)c1 [Example 30, 10-[(6-Chloro-3,3′-dimethoxy-[1,1′-biphenyl]-4-yl)carbonyl]-N-(2-pyridinylmethyl)-10,11-dihydro-5H-pyrrolo[2,1-c][1,4]benzodiazepine-3-carboxamide] | 25%
COc1cc(C(=O)N2Cc3ccc(C(=O)NCc4ccccn4)n3Cc3ccccc32)ccc1-c1cccc2ccccc12 [Example 31, 10-[3-Methoxy-4-(naphthalen-1-yl)benzoyl]-N-(2-pyridinylmethyl)-10,11-dihydro-5H-pyrrolo[2,1-c][1,4]benzodiazepine-3-carboxamide] | 18%
COc1ccccc1-c1ccc(C(=O)N2Cc3ccc(C(=O)NCc4ccccn4)n3Cc3ccccc32)cc1OC [Example 32, 10-[(2,2′-Dimethoxy-[1,1′-biphenyl]-4-yl)carbonyl]-N-(2-pyridinylmethyl)-10,11-dihydro-5H-pyrrolo[2,1-c][1,4]benzodiazepine-3-carboxamide] | 47%
COc1cccc(-c2ccc(C(=O)N3Cc4ccc(C(=O)NCc5ccccn5)n4Cc4ccccc43)cc2OC)c1 [Example 33, 10-[(2,3′-Dimethoxy-[1,1′-biphenyl]-4-yl)carbonyl]-N-(2-pyridinylmethyl)-10,11-dihydro-5H-pyrrolo[2,1-c][1,4]benzodiazepine-3-carboxamide] | 42%
O=C(NCc1ccccn1)c1ccc2n1Cc1ccccc1N(C(=O)c1ccc(-c3cccc4ccccc34)cc1Cl)C2 [Example 34, 10-[2-Chloro-4-(naphthalen-1-yl)benzoyl]-N-(2-pyridinylmethyl)-10,11-dihydro-5H-pyrrolo[2,1-c][1,4]benzodiazepine-3-carboxamide] | 5%
Cc1cc(C(=O)N2Cc3ccc(C(=O)NCc4ccccn4)n3Cc3ccccc32)ccc1-c1ccccc1C(F)(F)F [Example 35, 10-{[2-Methyl-2′-trifluoromethyl-[1,1′-biphenyl]-4-yl]carbonyl}-N-(2-pyridinylmethyl)-10,11-dihydro-5H-pyrrolo[2,1-c][1,4]benzodiazepine-3-carboxamide] | 27%
COc1ccccc1-c1ccc(C(=O)N2Cc3ccc(C(=O)NCc4cccnc4)n3Cc3ccccc32)cc1C [Example 36, 10-[(2′-Methoxy-2-methyl-[1,1′-biphenyl]-4-yl)carbonyl]-N-(3-pyridinylmethyl)-10,11-dihydro-5H-pyrrolo[2,1-c][1,4]benzodiazepine-3-carboxamide] | 46%
Cc1ccccc1-c1ccc(C(=O)N2Cc3ccc(C(=O)NCc4cccnc4)n3Cc3ccccc32)cc1C [Example 37, 10-[(2,2′-Dimethyl-[1,1′-biphenyl]-4-yl)carbonyl]-N-(3-pyridinylmethyl)-10,11-dihydro-5H-pyrrolo[2,1-c][1,4]benzodiazepine-3-carboxamide] | 60%
COc1cccc(-c2ccc(C(=O)N3Cc4ccc(C(=O)NCc5cccnc5)n4Cc4ccccc43)cc2C)c1 [Example 38, 10-[(3′-Methoxy-2-methyl-[1,1′-biphenyl]-4-yl)carbonyl]-N-(3-pyridinylmethyl)-10,11-dihydro-5H-pyrrolo[2,1-c][1,4]benzodiazepine-3-carboxamide] | 26%
COc1ccccc1-c1ccc(C(=O)N2Cc3ccc(C(=O)NCc4cccnc4)n3Cc3ccccc32)cc1 [Example 39, 10-[(2′-Methoxy-[1,1′-biphenyl]-4-yl)carbonyl]-N-(3-pyridinylmethyl)-10,11-dihydro-5H-pyrrolo[2,1-c][1,4]benzodiazepine-3-carboxamide] | 35%
Cc1ccccc1-c1ccc(C(=O)N2Cc3ccc(C(=O)NCc4cccnc4)n3Cc3ccccc32)cc1 [Example 40, 10-[(2′-Methyl-[1,1′-biphenyl]-4-yl)carbonyl]-N-(3-pyridinylmethyl)-10,11-dihydro-5H-pyrrolo[2,1-c][1,4]benzodiazepine-3-carboxamide] | 17%
COc1cc(C(=O)N2Cc3ccc(C(=O)NCc4cccnc4)n3Cc3ccccc32)ccc1-c1ccccc1C [Example 41, 10-[(2-Methoxy-2′-methyl-[1,1′-biphenyl]-4-yl)carbonyl]-N-(3-pyridinylmethyl)-10,11-dihydro-5H-pyrrolo[2,1-c][1,4]benzodiazepine-3-carboxamide] | 41%
COc1cc(-c2ccccc2C)c(Cl)cc1C(=O)N1Cc2ccc(C(=O)NCc3cccnc3)n2Cc2ccccc21 [Example 42, 10-[(6-Chloro-3-methoxy-2′-methyl-[1,1′-biphenyl]-4-yl)carbonyl]-N-(3-pyridinylmethyl)-10,11-dihydro-5H-pyrrolo[2,1-c][1,4]benzodiazepine-3-carboxamide] | 33%
